Test results published in patent publication EP1171440B1, “SUBSTITUTED-3-CYANO-[1.7],[1.5], AND [1.8]-NAPHTHYRIDINE INHIBITORS OF TYROSINE KINASES” (Wyeth Holdings Corporation, priority 1999, dated 2000).
Converted amounts (≈) assume the structure as drawn.

What was measured:
[1] = target: T1, EGF-R Kinase (recombinant enzyme) (Homo sapiens, UniProt P00533); assay: Inhibition of Epidermal Growth Factor Receptor Kinase (EGF-R) using recombinant enzyme, RR-SRC peptide phosphorylation with 33P-ATP; type: biochemical; conditions: for IC50: recombinant His-tagged cytoplasmic domain of EGFR, RR-SRC peptide, 90 min at room temperature, read-out: IC50
T1 construct: containing the EGFR cDNA encoding amino acids 645 - 1186 preceded by Met-Ala-(His)6; made in house; host or cells: Sf9 insect cells infected with recombinant baculovirus vHcEGFR52
Procedure: Representative test compounds were evaluated for their ability to inhibit the phosphorylation of the tyrosine residue of a peptide substrate catalyzed by the enzyme epidermal growth factor receptor kinase. […] The enzyme used in this assay is the His-tagged cytoplasmic domain of EGFR. A recombinant baculovirus (vHcEGFR52) was constructed containing the EGFR cDNA encoding amino acids 645 - 1186 preceded by Met-Ala-(His)6 . Sf9 cells in 100 mm plates were infected at an moi of 10 pfu/cell and cells were harvested 48 h post infection. A cytoplasmic extract was prepared using 1% Triton X-100 and applied to Ni-NTA column. After washing the column with 20 mM imidazole, HcEGFR was eluted with 250 mM imidazole (in 50 mM Na2HPO4, pH 8.0, 300 mM NaCl). Fractions collected were dialyzed against 10 mM HEPES, pH 7.0, 50 mM NaCl, 10% glycerol, 1ug/mL antipain and leupeptin and 0.1 mM Pefabloc SC. The protein was frozen in dry ice/methanol and stored -70° C.
Test compounds were made into 10 mg/mL stock solutions in 100% dimethylsulfoxide (DMSO). Prior to experiment, stock solutions were diluted to 500 uM with 100% DMSO and then serially diluted to the desired concentration with HEPES buffer (30 mM HEPES pH 7.4).
For the enzyme reaction, 10 uL of each inhibitor (at various concentrations) were added to each well of a 96-well plate. To this was added 3 uL of enzyme (1:10 dilution in 10mM HEPES, pH 7.4 for final conc. of 1:120). This was allowed to sit for 10 min on ice and was followed by the addition of 5 ul peptide (80 uM final conc.), 10ul of 4X Buffer (Table A), 0.25 uL ^33P-ATP and 12 uL H2O. The reaction was allowed to run for 90 min at room temperature and was followed by spotting the entire volume on to precut P81 filter papers. The filter discs were washed 2X with 0.5% phosphoric acid and radioactivity was measured using a liquid scintillation counter. Table A
The IC50 is the concentration of test compound needed to reduce the total amount of phosphorylated substrate by 50%. The % inhibition of the test compound was determined for at least three different concentrations and the IC50 value was evaluated from the dose response curve. […] CPM(control) is in units of counts per minute and was a number expressing the amount of radiolabeled ATP (γ-^33P) incorporated into the RR-SRC peptide substrate by the enzyme after 90 minutes at room temperature in the absence of test compound as measured by liquid scintillation counting. The CPM values were corrected for the background counts produced by ATP in the absence of the enzymatic reaction. Where it was possible to determine an IC50 value, this is reported in TABLE 1 otherwise the % inhibition at 0.5 µM concentration of test compound is shown in TABLE 1.

A2780DDP = assay: Inhibition of Cancer Cell Growth as Measured by Cell Number (Sulforhodamine B); type: cell-based, Human; conditions: Homo sapiens, 48 h, 48 hours exposure, read-out: IC50
Procedure: (§1) After 48 hours exposure to test compounds, cells were fixed with trichloroacetic acid, and stained with Sulforhodamine B. After washing with trichloroacetic acid, bound dye was solubilized in 10 mM Tris base and optical density was determined using a plate reader. Under conditions of the assay the optical density is proportional to the number of cells in the well. […] The test procedure is described in details by Philip Skehan et. al, J.Natl. Canc. […] The Her2Neu cell line is a 3T3 line that has bbeen transfected with Her2 receptor kinase.

A2780S = assay: as above; type: cell-based, Human; conditions: Homo sapiens, 48 h, 48 hours exposure, read-out: IC50
Procedure: as §1

A431 = assay: as above; type: cell-based, Human; conditions: Homo sapiens, A-431, 48 h, 48 hours exposure, read-out: IC50
Procedure: as §1

LOX = assay: as above; type: cell-based, Human; conditions: Homo sapiens, 48 hours exposure, read-out: IC50
Procedure: as §1

MDA435 = assay: as above; type: cell-based, Human; conditions: Homo sapiens, MDA435, 48 h, 48 hours exposure, read-out: IC50
Procedure: as §1

SKBR3 = assay: as above; type: cell-based, Human; conditions: Homo sapiens, SK-BR-3, 48 hours exposure, read-out: IC50
Procedure: as §1

SW620 = assay: as above; type: cell-based, Human; conditions: Homo sapiens, SW-620, 48 hours exposure, read-out: IC50
Procedure: as §1

MCF7 = assay: as above; type: cell-based; conditions: Homo sapiens, 48 hours exposure
Procedure: (§2) Human tumor cell lines were plated in 96-well plates (250 µl/well, 1-6 x 10^4 cells/ml) in RPMI 1640 medium, containing 5% FBS (Fetal Bovine Serum). […] After 48 hours exposure to test compounds, cells were fixed with trichloroacetic acid, and stained with Sulforhodamine B. After washing with trichloroacetic acid, bound dye was solubilized in 10 mM Tris base and optical density was determined using a plate reader. Under conditions of the assay the optical density is proportional to the number of cells in the well. IC50s (concentrations causing 50% inhibition of cell growth) were determined from the growth inhibition plots. The test procedure is described in details by Philip Skehan et. al, J.Natl. Canc. Inst., 82, 1107-1112 (1990). […] Information about some of the cell lines used in these test procedures is available from the American […]: Cell Lines and Hybridomas, 1994 Reference Guide, 8th Edition. The Her2Neu cell line is a 3T3 line that has bbeen transfected with Her2 receptor kinase.

3T3 = assay: as above; type: cell-based; conditions: Mus musculus, NIH3T3, 48 hours exposure, read-out: IC50
Procedure: as §2

Her2Neu = assay: as above; type: cell-based; conditions: Her2Neu (3T3 line transfected with Her2 receptor kinase); 48 hours exposure
Procedure: as §2

[2] = target: T2, KDR; the catalytic domain of the VEGF receptor (Homo sapiens, UniProt P35968); assay: Inhibition of Kinase insert Domain containing Receptor (KDR), radioactive substrate phosphorylation; type: biochemical; conditions: pH 7.2; substrate copolymer of glutamic acid and tyrosine, E:Y = 4:1
T2 construct: KDR; the catalytic domain of the VEGF receptor
Procedure: In this standard pharmacological test procedure, KDR protein is mixed, in the presence or absence of an inhibitor compound, with a substrate peptide to be phosphorylated (a copolymer of glutamic acid and tyrosine, E:Y = 4:1) and other cofactors such as Mg^++ and sodium vanadate (a protein tyrosine phosphatase inhibitor) in an appropriate buffer to maintain pH (7.2). ATP and a radioactive tracer (either P^32- or P^33- labeled ATP) is then add to initiate phosphorylation. After incubation, the radioactive phosphate associated with the acid-insoluble fraction of the assay mixture is then quantified as reflection of substrate phosphorylation. This radioactive format was used to identify inhibitors of KDR tyrosine kinase activity where the IC50 is the concentration of drug that inhibits substrate phosphorylation by 50%.

T1 sequence (P00533 669-1210): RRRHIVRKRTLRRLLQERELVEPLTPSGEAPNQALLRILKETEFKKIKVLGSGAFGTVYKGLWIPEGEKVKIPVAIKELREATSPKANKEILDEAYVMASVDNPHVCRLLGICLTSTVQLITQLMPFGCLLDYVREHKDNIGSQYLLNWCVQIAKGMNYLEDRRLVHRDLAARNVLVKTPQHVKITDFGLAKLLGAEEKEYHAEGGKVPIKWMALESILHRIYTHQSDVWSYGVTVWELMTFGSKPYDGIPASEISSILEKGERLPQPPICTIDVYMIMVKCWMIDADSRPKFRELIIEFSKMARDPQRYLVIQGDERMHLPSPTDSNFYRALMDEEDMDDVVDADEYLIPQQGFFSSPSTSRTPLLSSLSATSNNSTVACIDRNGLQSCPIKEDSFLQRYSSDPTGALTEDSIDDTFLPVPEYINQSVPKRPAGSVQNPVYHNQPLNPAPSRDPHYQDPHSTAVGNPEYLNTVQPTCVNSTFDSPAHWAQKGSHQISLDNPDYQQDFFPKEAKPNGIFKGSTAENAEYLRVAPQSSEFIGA
T2 sequence (P35968 834-1162 limits assumed): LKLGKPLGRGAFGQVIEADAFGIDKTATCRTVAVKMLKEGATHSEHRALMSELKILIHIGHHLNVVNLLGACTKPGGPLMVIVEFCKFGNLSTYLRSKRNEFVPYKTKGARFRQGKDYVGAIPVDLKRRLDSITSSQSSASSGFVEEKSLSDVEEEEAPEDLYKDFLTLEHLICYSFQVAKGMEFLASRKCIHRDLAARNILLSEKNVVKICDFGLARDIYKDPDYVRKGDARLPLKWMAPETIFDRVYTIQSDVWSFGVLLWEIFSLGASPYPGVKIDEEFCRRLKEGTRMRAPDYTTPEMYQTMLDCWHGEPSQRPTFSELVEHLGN

| SMILES | IC50 [1] | IC50 (A2780DDP) | IC50 (A2780S) | IC50 (A431) | IC50 (LOX) | IC50 (MDA435) | IC50 (SKBR3) | IC50 (SW620) | IC50 (MCF7) | inhibition at 0.5 µM ([1]; 0.5 µM concentration of test compound, read-out: % Inhibition @ 0.5) | IC50 (3T3) | IC50 (Her2Neu) | IC50 [2] |
| --- | --- | --- | --- | --- | --- | --- | --- | --- | --- | --- | --- | --- | --- |
| CC#CC(=O)Nc1cc2c(Nc3cccc(Br)c3)c(C#N)cnc2cn1 [Example 61, But-2-ynoic acid, [4-(3-bromo-phenylamino)-3-cyano-[1.7]-naphthyridin-6-yl]-amide] | 0.02 µM | 0.13 mg/L (≈ 0.32 µM) | 0.06 mg/L (≈ 0.148 µM) | 0.23 mg/L (≈ 0.566 µM) | 0.07 mg/L (≈ 0.172 µM) | 0.88 mg/L (≈ 2.17 µM) | 0.12 mg/L (≈ 0.295 µM) | 0.17 mg/L (≈ 0.418 µM) | 0.4 mg/L (≈ 0.985 µM) |  |  |  |  |
| CN(C)CCOc1cc2c(Nc3ccc(F)c(Cl)c3)c(C#N)cnc2cn1 [Example 74, 4-(3-Chloro-4-fluoro-phenylamino)-6-(2-dimethylamino-ethoxy)-[1.7]naphthyridine-3-carbonitrile] | 1 µM |  |  | 2.23 mg/L (≈ 5.77 µM) |  | > 5 mg/L | 4.63 mg/L (≈ 12 µM) | > 5 mg/L |  | 31.3% | 4.48 mg/L (≈ 11.6 µM) | > 5 mg/L |  |
| Cc1ccc(Nc2c(C#N)cnc3cnc(F)cc23)cc1O [Example 66, 6-Fluoro-4-(3-hydroxy-4-methyl-phenylamino)-[1.7]naphthyridine-3-carbonitrile] |  |  |  |  |  |  |  |  |  |  |  |  | 33.9 mg/L (≈ 115 µM) |
